Structures are written as SMILES.

As usually defined, the melting point is the temperature of the solid-liquid transition.

Take `O=C1CCCCCCCCCCC=CCCCCCCCCCCC1O` (stereo not drawn): the melting point is 78 °C.

Molecule `O=C(N[C@@H](Cc1ccccc1)C[C@H](O)[C@H](Cc1ccccc1)NC(=O)OCc1cscn1)OCc1cscn1` displayed a melting point of 64 to 66 °C.

Regarding `CC1(C)CCc2c(N3CCCC3)nc3sc4c(NCC(=O)NCC5CCCO5)ncnc4c3c2C1` (stereo not drawn), the melting point is 210 to 211 °C.

`CCOC(=O)c1[nH]ccc1OCC` returned a melting point of 81 to 83 °C.

Take `COc1cc(C#Cc2cnc(N)nc2N)cc(OC)c1OC`: the melting point lay within 202 to 204 °C.

Take `COc1nnc(-c2ccccc2)cc1C`: the melting point lay within 62 to 64 °C.

On to `CCOC(=O)C(CC(=O)c1cccc(OC)c1)(NC(C)=O)C(=O)OCC`, for which the melting point is 119 to 120 °C.

Consider `CS(=O)c1ccc(-c2nn(Cc3cccnc3)c(=O)cc2-c2ccc(Cl)cc2)cc1` (stereo not drawn), for which the melting point was 155 °C.

Consider `COC(=O)C1CC(O)CN1C(=O)c1ccc(OC)c(OC)c1` (stereo not drawn), for which the melting point is 174 °C.

Molecule `CCCc1nnc2c(Cl)nc3ccccc3n12` gave a melting point of 173 to 175 °C.

For the molecule `CCCCCCCCCCCCSC(C)Cn1ccnc1` (stereo not drawn), the melting point was 79.5 to 81 °C.

`Cc1nc2c3c(ccn2c1C)C(=O)CC(c1ccsc1)N3` (stereo not drawn) yielded a melting point of 176 to 177 °C.

`O=C(Oc1ccccc1)N1Cc2ccccc2C(c2ccccc2)c2ccccc21` (stereo not drawn) registered a melting point of 155 to 165 °C.

Consider `CCOC(=O)c1c(O)c2cc(OCc3ccccc3)ccc2c(=O)n1CC(C)C`, for which the melting point lay within 92 to 93 °C.

`COc1ccc(C)c2c1C(C=O)C1CCCCC21` (stereo not drawn) came in with a melting point of 92 to 93 °C.

`Cn1c(COc2ccc(C#N)cc2)nc2nc(C=O)ccc21` returned a melting point of 231 to 234 °C.

As for `CC(C#N)(Cn1nnc2cc(Cl)ccc21)NC(=O)c1ccc(OC(F)(F)F)cc1` (stereo not drawn), the melting point is 135 °C.

Regarding `CCCc1c(C(=O)C2CCCCC2)c2ccc(C(N)=O)cc2n1Cc1ccccc1Cl`, the melting point lay within 208 to 210 °C.

`COc1cc(OC)nc(Oc2cccc(O)c2C(=O)OCc2ccccc2)n1` registered a melting point of 63 to 65 °C.

`CC(C)(C(=O)c1ccccc1)S(=O)(=O)c1ccccc1` showed a melting point of 70 °C.

For the molecule `O=C(c1ccccc1)c1cc([N+](=O)[O-])ccc1-n1nc(CCl)cc1CCl`, the melting point was in the range of 152 to 155 °C.

`CC(=O)SCCC(=O)N1CCN(C)CC1C(=O)O` (stereo not drawn) displayed a melting point of 92 to 98 °C.

Molecule `COC(c1cccs1)C1C(c2ccccc2)CC(=O)N1C` (stereo not drawn) had a melting point of 101 to 102 °C.

Consider `Brc1ccn(-c2ccc(-c3ccccc3)cc2)c1`, for which the melting point lay within 141 to 143 °C.

In turn, `O=C1C=CC(O)(c2ccc(OCCCCl)cc2)O1` (stereo not drawn) yielded a melting point of 219 to 220 °C.

Consider `COc1cc(C(=O)Cc2ccccc2)cc(Cl)c1Cl`, for which the melting point lay in the range of 126 to 129 °C.

`Nc1nccc(CCc2ccc3c(C(=O)Nc4cccc(C(F)(F)F)c4)cccc3c2)n1` registered a melting point of 225 to 227 °C.

As for `Nc1ccc(S(N)(=O)=O)c2c1CCCC2`, the melting point fell in the range of 216 to 219 °C.

In the case of `CCOCCOC(=O)C(=O)Nc1nc(-c2ccccc2)cs1`, the melting point was in the range of 109 to 110 °C.

In turn, `CCc1c(-c2ccc(OCc3ccccc3)cc2)c2c(COC)cc3c(OCc4ccccc4)ccc1n32` came in with a melting point of 127 to 130 °C.

Molecule `CCOC(=O)C1=C(c2ccc(-n3nc(C)nc3C)cc2)NC(C)=C(C(=O)Nc2ccccn2)C1c1ccccc1Cl` (stereo not drawn) yielded a melting point of 130 °C.

`O=CN1CCN(O)CC1` had a melting point of 118 to 124 °C.

Molecule `CCCC1=C(C(=O)OCC)C(c2cccc(C(F)(F)F)c2Cl)c2c[nH]nc2N1` (stereo not drawn) gave a melting point of 236 to 238 °C.

Molecule `CN1C(=O)C2=C(c3ccc([N+](=O)[O-])cc3)OC(=O)C2=C1c1ccccc1` gave a melting point of 253 to 255 °C.

As for `CC(n1cnc2cc(I)ccc2c1=O)C(O)(Cn1cncn1)c1ccc(F)cc1F` (stereo not drawn), the melting point fell in the range of 155 to 156 °C.

For the molecule `Cc1cc(Oc2ncc(C(F)(F)F)cc2Cl)nn1C(=O)NC1CCCCC1`, the melting point was in the range of 69 to 71 °C.

`C[C@H](O)CCOc1c(-c2ccc(S(C)(=O)=O)cc2)cnn(-c2ccc(F)c(F)c2)c1=O` displayed a melting point of 128 to 130 °C.

Take `CCOc1nc(Cl)ncc1F`: the melting point lay within 30 to 32 °C.

`CCCCC[C@@H](CNC(=O)Nc1c(N(C)C)ncnc1N(C)C)c1cccc2c1OCO2` gave a melting point of 151 to 152 °C.

For `Cc1cc(C2(C(F)(F)F)CC(c3ccc(F)cc3)=NO2)ccc1NC(=O)c1cccc(N)c1C(=O)NC(C)C` (stereo not drawn), the melting point was in the range of 122 to 124 °C.

In the case of `CC(C)(C)OC(=O)Nc1cccc(C(=O)OCOC(=O)C(C)(C)C)c1`, the melting point fell in the range of 88 to 89 °C.

For `Cc1c(NC(=O)c2ccc(OCC3CC3)cc2)ccc2[nH]c(CNC3CCCC3)cc12`, the melting point lay in the range of 207 to 208 °C.

`O=C1NCC(CN2C(=O)C3(COc4cc5c(cc43)CCO5)c3ccccc32)O1` (stereo not drawn) showed a melting point of 197 to 198 °C.

`COC(=O)c1nn(-c2c(Cl)cc(C(F)(F)F)cc2Cl)c(OC)c1SC(F)(F)F` registered a melting point of 97 to 98 °C.

As for `CSc1cc(C)nc(SC)c1NC(=O)C=CC1=C(c2ccccc2)c2ccccc2OC1`, the melting point fell in the range of 225 to 227 °C.

`CS(=O)(=O)c1ccc(-c2cnn(-c3cccc(Cl)c3)c(=O)c2COC(=O)c2ccccc2)cc1` came in with a melting point of 50 to 70 °C.

The molecule `[N-]=[N+]=NCc1cccc(C(=O)c2ccc(Cl)cc2)c1` returned a melting point of 43 to 45 °C.

For `CC(C(=O)O)c1ccc(CC(C)C(C)O)cc1` (stereo not drawn), the melting point is 85 to 88 °C.

In the case of `NC(=O)C1Cc2c([nH]c3ccccc23)C(c2ccccc2)N1C(=O)CCl` (stereo not drawn), the melting point lay in the range of 180 to 182 °C.

As for `CCCCCCOc1ccc(OC)c(Cc2cnc(N)nc2N)c1`, the melting point fell in the range of 139 to 140 °C.

Consider `N#Cc1ccc(C(F)(F)C(F)(F)c2ccccc2)cc1`, for which the melting point lay in the range of 118 to 123 °C.

Consider `COc1ccc(C(=O)Nc2ccc(C(C)(C)C(N)=O)cc2)cc1OC`, for which the melting point is 193 to 195 °C.

With `COc1cn(-c2ccc(N3CC(F)C3)cc2F)nc(-c2ccnn2-c2ccccc2)c1=O`, the melting point fell in the range of 162 to 163 °C.

In turn, `CCOC(=O)c1cn(CCF)c2nc(S(=O)(=O)CC)c(F)cc2c1=O` gave a melting point of 176 to 178 °C.

With `CC1(C)Oc2ccccc2-n2c(CN3CCOCC3)ccc21`, the melting point was in the range of 150 to 151 °C.

Molecule `COc1ccc(C)cc1NC(=O)Nc1ccc(N2CCN(C(=O)Nc3ccc(OCCO)cc3C(F)(F)F)CC2)c(C#N)c1` displayed a melting point of 135 to 137 °C.

Take `CCOc1ccc(-n2c(N)cc(=O)nc2Nc2ccccc2)cc1`: the melting point fell in the range of 114 to 118 °C.

`COc1ccc([C@H](CC(=O)O)n2ccn(CCCc3ccc4c(n3)NCCC4)c2=O)cn1` yielded a melting point of 123 °C.

In turn, `CCOCc1nc2c(N)nc3cc(OCCCCCCNS(C)(=O)=O)ccc3c2n1CC(C)(C)NS(C)(=O)=O` had a melting point of 176 to 180 °C.

`CC(C)ON=Cc1cc(-n2c(=O)cc(C(F)(F)F)n(C)c2=O)ccc1Cl` gave a melting point of 105 to 107 °C.

For the molecule `COCCN(CCOC)c1ccc(Nc2ncc3c(C)c(C(C)=O)c(=O)n(C4CCCC4)c3n2)nc1`, the melting point was determined as 138 °C.

Molecule `N#Cc1ccc(CC2CCN(Cc3ccccc3)CC2)cc1` came in with a melting point of 95 to 96 °C.

`O=C(Nc1ccc(C(=O)N2Cc3cccn3Cc3ccccc32)cc1)c1cc(Cl)cc(Cl)c1Cl` registered a melting point of 231 to 234 °C.

`COc1cc(C=C(C#N)C(N)=O)c([N+](=O)[O-])cc1OC` displayed a melting point of 265 to 266 °C.

With `CC(=O)Oc1ccc(C2=COc3ccccc3O2)cc1`, the melting point lay within 123 to 125 °C.

`CCOC(=O)COc1c(C)c(C(=O)c2ccc(C(=O)OC)cc2)n2ccccc12` displayed a melting point of 84.5 °C.

The molecule `CCOC(=O)c1cc(C(=O)C(C)(C)Br)c(=O)[nH]c1C(=O)OCC` had a melting point of 124 to 126 °C.

`Cc1ccc(NS(=O)(=O)c2cccs2)c2[nH]c(C3=NCCS3)cc12` had a melting point of 198 to 199 °C.

Take `CC(C)Cc1sc(-c2nccs2)c2c1C(=O)CC(C)(C)C2`: the melting point lay within 98 to 100 °C.

Take `Cc1ccc(S(=O)(=O)NCCCCOc2ccc([N+](=O)[O-])cc2)cc1`: the melting point was in the range of 87 to 88 °C.

On to `O=C(O)COCCC1CCCN(c2cnc(-c3ccccc3)c(-c3ccccc3)n2)C1` (stereo not drawn), for which the melting point fell in the range of 139 to 140 °C.

The molecule `CCOCc1nc2c(N)nc3cc(-c4cccnc4)ccc3c2n1CCNS(C)(=O)=O` displayed a melting point of 233 to 235 °C.

Molecule `Cc1cc2c(nc1OCCCCN1CCN(c3cccc4ccccc34)CC1)NC(=O)CC2` yielded a melting point of 76 to 78 °C.

As for `CCNC1C=CC=C(Oc2ccc(F)cc2)C1(Cl)[N+](=O)[O-]` (stereo not drawn), the melting point fell in the range of 69 to 70 °C.

In turn, `CN(Cc1ccccc1)Cc1c(-c2ccc(N)cc2)sc2c1c(=O)n(-c1ccccc1)c(=O)n2Cc1c(F)cccc1F` showed a melting point of 205 to 207 °C.

With `COC(=O)c1cc(OCC(=O)O)cc(C(=O)OC)c1[N+](=O)[O-]`, the melting point is 151 to 152 °C.

In turn, `O=[N+]([O-])c1sc2ccc(F)cc2c1Br` returned a melting point of 129 to 130 °C.

Consider `COC(=O)N1CCC2=NNC(=O)CC2C1` (stereo not drawn), for which the melting point lay within 163 to 165 °C.

For the molecule `Nc1ccc(SCc2csc(N)n2)cc1`, the melting point was 130 to 132 °C.

`O=C(NCCO)c1cccc(-c2ccc3c(n2)C(Oc2ccc(Cl)cc2Cl)CC3)c1` (stereo not drawn) registered a melting point of 181 to 182 °C.

`CCCCN1C(=O)NC(Cc2ccc(C#N)cc2)C1=O` (stereo not drawn) showed a melting point of 136 °C.

As for `N#CC1Sc2ccccc2-c2ccccc21` (stereo not drawn), the melting point was 114 to 116 °C.

As for `O=C(O)c1ccc(OCC2CC(=O)N(c3ccc(OC4CCCC4O)cc3)C2)cc1` (stereo not drawn), the melting point was in the range of 176 to 178 °C.

With `CCN(CC)CCc1ccc(NC(=O)C#Cc2ccc(C(F)(F)F)cc2Cl)cc1`, the melting point lay in the range of 145 to 150 °C.

On to `CN1CCN(c2cccc3ccc(NC(=O)Nc4ccccc4)cc23)CC1`, for which the melting point is 213 to 214 °C.

Take `NC1(CO)CCCNC1=O` (stereo not drawn): the melting point was found to be 145 °C.

The molecule `CCCCCCOCOc1c(C(C)(C)C)cc(-c2ccc(C#N)c(C#N)c2)cc1C(C)(C)C` registered a melting point of 106 to 107 °C.

Molecule `CCN1CCCC(NC(=O)c2ccc(Nc3ccnc4c(C(F)(F)F)cccc34)cc2)C1` (stereo not drawn) returned a melting point of 177 to 178 °C.

Values taken from a melting point compilation (Tetko et al.; mined from patent text by program, amines drawn as free bases though some values may be those of a salt).
